Experimental data taken from EP0497314A1, “Use of azapirones in attention deficit hyperactivity disorder” (Bristol-Myers Squibb Company, priority 1991, dated 1992).
Counter-ions that a name gives are not always drawn. Marks after values point to notes of the source that are not given here.

Tests used:
rabbit cortex = assay: Quantitative EEG, rabbit cortex, intravenous administration; type: in vivo, rabbits; details: for group percent change in electrical energy from pre-drug control, Δ band / mean change ± S.E. in electrical energy from pre-drug control, Δ band: Δ = 0.5-3.5 Hz; for group percent change in electrical energy from pre-drug control, α band / mean change ± S.E. in electrical energy from pre-drug control, α band: α= 7-13 Hz; for group percent change in electrical energy from pre-drug control, β band / mean change ± S.E. in electrical energy from pre-drug control, β band: β= 13-25 Hz; for group percent change in electrical energy from pre-drug control, γ band / mean change ± S.E. in electrical energy from pre-drug control, γ band: γ= 25-40 Hz; for group percent change in electrical energy from pre-drug control, θ band / mean change ± S.E. in electrical energy from pre-drug control, θ band: θ= 3.5-7.0 Hz
Method in brief: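 Restrained rabbits with cortical leads had EEG split into Δ, ϑ, α, β and γ bands and integrated over 1 h from the moment of i.v. injection, in saline, dosed as free base. Counts were compared with each animal's own pretreatment control by paired t-test (p≦0.05). Doses were reduced geometrically to a no-effect level.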

[1] = test system: fronto-occipital cortex of the cat; assay: Quantitative EEG, fronto-occipital cat cortex, subcutaneous administration; type: in vivo, cats; details: for EEG profile: cat cortex; for group percent change in electrical energy from pre-drug control, Δ band / mean change ± S.E. in electrical energy from pre-drug control, Δ band / group percent change in electrical energy from pre-drug control, α band / mean change ± S.E. in electrical energy from pre-drug control, α band / group percent change in electrical energy from pre-drug control, β band / mean change ± S.E. in electrical energy from pre-drug control, β band / group percent change in electrical energy from pre-drug control, γ band / mean change ± S.E. in electrical energy from pre-drug control, γ band / group percent change in electrical energy from pre-drug control, θ band / mean change ± S.E. in electrical energy from pre-drug control, θ band: fronto-occipital cat cortex; for group percent change in electrical energy from pre-drug control, α band / mean change ± S.E. in electrical energy from pre-drug control, α band: α= 7-13 Hz; for group percent change in electrical energy from pre-drug control, β band / mean change ± S.E. in electrical energy from pre-drug control, β band: β= 13-25 Hz; for group percent change in electrical energy from pre-drug control, γ band / mean change ± S.E. in electrical energy from pre-drug control, γ band: γ= 25-40 Hz; for group percent change in electrical energy from pre-drug control, θ band / mean change ± S.E. in electrical energy from pre-drug control, θ band: θ= 3.5-7.0 Hz
Method in brief: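 Adult female mongrel cats (n=6 per group) with implanted electrodes were recorded while held in restraining bags, with EEG filtered into Δ, ϑ, α, β and γ bands and integrated as energy counts. Drugs were given subcutaneously in saline, with doses calculated as free base, and recording started 30 min post-injection. Changes from each animal's pre-treatment control were tested by paired Student t-test (P≦0.05).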

[2] = test system: attention deficit hyperactivity disorder; assay: Treatment of children with attention deficit hyperactivity disorder (Examples 1 and 2); type: in vivo, child
Method: Buspirone is administered to a person, who has been identified by a clinician as having the symptoms associated with attention deficit hyperactivity disorder. During treatment, the child received […] of buspirone twice a day.
Buspirone is administered to a person, who has been identified by a clinician as having the symptoms associated with attention deficit hyperactivity disorder. During the treatment, the child received […] of buspirone three times a day.

[3] = test system: evoked electrographic activity; details: limited number of cats; John, et al, 1973; cited from earlier work
[4] = rabbit cortex, 0.25 mg/kg free base i.v.
[5] = rabbit cortex, 0.50 mg/kg free base i.v.
[6] = Δ = 0.05-35 Hz, 0.125 mg/kg free base s.c.
[7] = Δ = 0.05-35 Hz, 0.5 mg/kg free base s.c.
[8] = Δ = 0.5-3.5 Hz, 0.25 mg/kg free base s.c.
[9] = Δ = 0.5-3.5 Hz, 2.0 mg/kg free base s.c.
[10] = Δ = 0.5-3.5 Hz, 8.0 mg/kg free base s.c.
[11] = child with symptoms of attention deficit hyperactivity disorder, 5 mg/kg twice a day

SMILES: O=C1CC2(CCCC2)CC(=O)N1CCCCN1CCN(c2ncccn2)CC1 [Buspirone HCl, buspirone hydrochloride]
- minimal effective dose (rabbit cortex; Oryctolagus cuniculus, iv, rabbit cortex EEG, dose of free base, read-out: the minimum dose required to produce the EEG profile characteristic of that particular drug): 0.5 mg/kg
- the no-effect dose (rabbit cortex; rabbit cortex EEG, dose of free base): 0.25† mg/kg, i.v.
- EEG profile (rabbit cortex; rabbit cortex, i.v.): shares a component of stimulation similar to that of methylphenidate and dextroamphetamine
- group percent change in electrical energy from pre-drug control, Δ band (rabbit cortex; [4]): 0%
- mean change ± S.E. in electrical energy from pre-drug control, Δ band (rabbit cortex; [4]): -1 ± 18 instrument counts
- group percent change in electrical energy from pre-drug control, Δ band (rabbit cortex; [5]): -34%
- mean change ± S.E. in electrical energy from pre-drug control, Δ band (rabbit cortex; [5]): -114 ± 25 instrument counts
- group percent change in electrical energy from pre-drug control, α band (rabbit cortex; [4]): -1%
- mean change ± S.E. in electrical energy from pre-drug control, α band (rabbit cortex; [4]): -2 ± 12 instrument counts
- group percent change in electrical energy from pre-drug control, α band (rabbit cortex; [5]): -32%
- mean change ± S.E. in electrical energy from pre-drug control, α band (rabbit cortex; [5]): -70 ± 13 instrument counts
- group percent change in electrical energy from pre-drug control, β band (rabbit cortex; [4]): -4%
- mean change ± S.E. in electrical energy from pre-drug control, β band (rabbit cortex; [4]): -5 ± 7 instrument counts
- group percent change in electrical energy from pre-drug control, β band (rabbit cortex; [5]): -28%
- mean change ± S.E. in electrical energy from pre-drug control, β band (rabbit cortex; [5]): -47 ± 10 instrument counts
- group percent change in electrical energy from pre-drug control, γ band (rabbit cortex; [4]): -5%
- mean change ± S.E. in electrical energy from pre-drug control, γ band (rabbit cortex; [4]): -5 ± 2 instrument counts
- group percent change in electrical energy from pre-drug control, γ band (rabbit cortex; [5]): -14%
- mean change ± S.E. in electrical energy from pre-drug control, γ band (rabbit cortex; [5]): -17 ± 3 instrument counts
- group percent change in electrical energy from pre-drug control, θ band (rabbit cortex; [4]): -5%
- mean change ± S.E. in electrical energy from pre-drug control, θ band (rabbit cortex; [4]): -10 ± 14 instrument counts
- group percent change in electrical energy from pre-drug control, θ band (rabbit cortex; [5]): -35%
- mean change ± S.E. in electrical energy from pre-drug control, θ band (rabbit cortex; [5]): -86 ± 11 instrument counts
- minimal effective dose ([1]; Felis catus, sc, fronto-occipital cat cortex EEG, dose of free base, read-out: the minimum dose required to produce the EEG profile characteristic of that particular drug): 0.25 mg/kg
- doses required to produce the combined antipsychotic-stimulant EEG profile ([1]; cat cortex EEG, s.c.): at least twice that of thioridazine and chlorpromazine
- EEG profile ([1]; 8.0 mg/kg dose, s.c.): causes an increase in electrical "power" in the lowest frequency bands
- EEG profile ([1]; higher dose (2.0 and 8.0 mg/kg, s.c.)): elicit a profile which deviates from that produced by the stimulants
- the no-effect dose ([1]; fronto-occipital cat cortex EEG, dose of free base): 0.125† mg/kg, s.c.
- group percent change in electrical energy from pre-drug control, Δ band [1, 6]: -21%
- mean change ± S.E. in electrical energy from pre-drug control, Δ band [1, 6]: -46 ± 27 instrument counts
- group percent change in electrical energy from pre-drug control, Δ band [1, 7]: -14%
- mean change ± S.E. in electrical energy from pre-drug control, Δ band [1, 7]: -31 ± 18 instrument counts
- group percent change in electrical energy from pre-drug control, Δ band [1, 8]: +5%
- mean change ± S.E. in electrical energy from pre-drug control, Δ band [1, 8]: +10 ± 8 instrument counts
- group percent change in electrical energy from pre-drug control, Δ band [1, 9]: +15%
- mean change ± S.E. in electrical energy from pre-drug control, Δ band [1, 9]: +30 ± 22 instrument counts
- group percent change in electrical energy from pre-drug control, Δ band [1, 10]: +55%
- mean change ± S.E. in electrical energy from pre-drug control, Δ band [1, 10]: +89 ± 29 instrument counts
- group percent change in electrical energy from pre-drug control, α band ([1]; 0.125 mg/kg free base s.c.): -18%
- mean change ± S.E. in electrical energy from pre-drug control, α band ([1]; 0.125 mg/kg free base s.c.): -23 ± 12 instrument counts
- group percent change in electrical energy from pre-drug control, α band ([1]; 0.25 mg/kg free base s.c.): -26%
- mean change ± S.E. in electrical energy from pre-drug control, α band ([1]; 0.25 mg/kg free base s.c.): -35 ± 6 instrument counts
- group percent change in electrical energy from pre-drug control, α band ([1]; 0.5 mg/kg free base s.c.): -39%
- mean change ± S.E. in electrical energy from pre-drug control, α band ([1]; 0.5 mg/kg free base s.c.): -47 ± 12 instrument counts
- group percent change in electrical energy from pre-drug control, α band ([1]; 2.0 mg/kg free base s.c.): -15%
- mean change ± S.E. in electrical energy from pre-drug control, α band ([1]; 2.0 mg/kg free base s.c.): -20 ± 14 instrument counts
- group percent change in electrical energy from pre-drug control, α band ([1]; 8.0 mg/kg free base s.c.): -6%
- mean change ± S.E. in electrical energy from pre-drug control, α band ([1]; 8.0 mg/kg free base s.c.): -5 ± 14 instrument counts
- group percent change in electrical energy from pre-drug control, β band ([1]; 0.125 mg/kg free base s.c.): -6%
- mean change ± S.E. in electrical energy from pre-drug control, β band ([1]; 0.125 mg/kg free base s.c.): -6 ± 4 instrument counts
- group percent change in electrical energy from pre-drug control, β band ([1]; 0.25 mg/kg free base s.c.): -17%
- mean change ± S.E. in electrical energy from pre-drug control, β band ([1]; 0.25 mg/kg free base s.c.): -24 ± 5 instrument counts
- group percent change in electrical energy from pre-drug control, β band ([1]; 0.5 mg/kg free base s.c.): -23%
- mean change ± S.E. in electrical energy from pre-drug control, β band ([1]; 0.5 mg/kg free base s.c.): -24 ± 3 instrument counts
- group percent change in electrical energy from pre-drug control, β band ([1]; 2.0 mg/kg free base s.c.): -24%
- mean change ± S.E. in electrical energy from pre-drug control, β band ([1]; 2.0 mg/kg free base s.c.): -33 ± 8 instrument counts
- group percent change in electrical energy from pre-drug control, β band ([1]; 8.0 mg/kg free base s.c.): -21%
- mean change ± S.E. in electrical energy from pre-drug control, β band ([1]; 8.0 mg/kg free base s.c.): -22 ± 7 instrument counts
- group percent change in electrical energy from pre-drug control, γ band ([1]; 0.125 mg/kg free base s.c.): +5%
- mean change ± S.E. in electrical energy from pre-drug control, γ band ([1]; 0.125 mg/kg free base s.c.): +4 ± 3 instrument counts
- group percent change in electrical energy from pre-drug control, γ band ([1]; 0.25 mg/kg free base s.c.): 0%
- mean change ± S.E. in electrical energy from pre-drug control, γ band ([1]; 0.25 mg/kg free base s.c.): -1 ± 3 instrument counts
- group percent change in electrical energy from pre-drug control, γ band ([1]; 0.5 mg/kg free base s.c.): -5%
- mean change ± S.E. in electrical energy from pre-drug control, γ band ([1]; 0.5 mg/kg free base s.c.): -4 ± 4 instrument counts
- group percent change in electrical energy from pre-drug control, γ band ([1]; 2.0 mg/kg free base s.c.): -9%
- mean change ± S.E. in electrical energy from pre-drug control, γ band ([1]; 2.0 mg/kg free base s.c.): -10 ± 3 instrument counts
- group percent change in electrical energy from pre-drug control, γ band ([1]; 8.0 mg/kg free base s.c.): -3%
- mean change ± S.E. in electrical energy from pre-drug control, γ band ([1]; 8.0 mg/kg free base s.c.): -2 ± 3 instrument counts
- group percent change in electrical energy from pre-drug control, θ band ([1]; 0.125 mg/kg free base s.c.): -22%
- mean change ± S.E. in electrical energy from pre-drug control, θ band ([1]; 0.125 mg/kg free base s.c.): -32 ± 16 instrument counts
- group percent change in electrical energy from pre-drug control, θ band ([1]; 0.25 mg/kg free base s.c.): -16%
- mean change ± S.E. in electrical energy from pre-drug control, θ band ([1]; 0.25 mg/kg free base s.c.): -21 ± 6 instrument counts
- group percent change in electrical energy from pre-drug control, θ band ([1]; 0.5 mg/kg free base s.c.): -32%
- mean change ± S.E. in electrical energy from pre-drug control, θ band ([1]; 0.5 mg/kg free base s.c.): -46 ± 14 instrument counts
- group percent change in electrical energy from pre-drug control, θ band ([1]; 2.0 mg/kg free base s.c.): +13%
- mean change ± S.E. in electrical energy from pre-drug control, θ band ([1]; 2.0 mg/kg free base s.c.): +17 ± 15 instrument counts
- group percent change in electrical energy from pre-drug control, θ band ([1]; 8.0 mg/kg free base s.c.): +34%
- mean change ± S.E. in electrical energy from pre-drug control, θ band ([1]; 8.0 mg/kg free base s.c.): +35 ± 15 instrument counts
- clinical response during and after treatment [2, 11]: spectacular and very fast improvement
- sleep disturbance [2, 11]: no sleep disturbance
- clinical response during and after treatment ([2]; with symptoms of attention deficit hyperactivity disorder, 5 mg/kg three times a day): excellent response
- effect on evoked electrographic activity [3]: possessed properties similar to both chlorpromazine and methamphetamine
